What all share (assay type): in vivo
The nature of experiment [1]: Sensory evaluation, sweet taste enhancement of LHe with sodium cyclamate (15-point scale).
Description: In order to verify specificity of the sweet taste enhancement effect of LHe, a sweetener except sucrose was used as a sweet taste reference sample. […] In the experiment, panels well trained in the basic tastes participated, and the presented samples were maintained at room temperature. After having a taste of the reference sample, the mouth was rinsed with water, and then after having a taste of the sample, intensity of each basic taste was evaluated.
In order to verify specificity of the sweet taste enhancement effect of LHe, a sweetener, except sucrose, was used as a sweet taste reference sample.
Experiment [2] is described as follows: Sensory evaluation on Met-Asn peptide. Here is the method:
Sensory evaluation was conducted to validate the role of Met-Asn peptide itself, without sugar binding thereto, on the sweetening effect. […] When a Met-Asn peptide+5% sucrose solution was presented as a sample, the sweet taste intensity thereof was 5.00±0.23, which was not shown to have a significant difference from that of the 5% sucrose solution. […] Accordingly, the sweetness effect of the fraction containing the Met-Asn peptide may be due to the sugar structure binding.

Experiment [3] can be described thus: Sensory evaluation, sweet taste enhancement of LHe with sucrose (15-point scale).
Description: In order to more accurately verify the sweet taste enhancement effect of LHe, 2, 5, 10, and 15% sucrose solutions were used as sweet taste reference samples. An LHe solution (300 μg/mL) and an LHe+5% sucrose solution were presented as samples, and sweet taste intensities thereof were measured by a 15-point scale method. Here, the sweet taste intensities of sweet taste reference samples, 2, 5, 10, and 16% sucrose solutions were presented to be 2, 5, 10, and 15 points, respectively, according to the method of Meilgaard et al.
In order to more accurately verify the sweet taste enhancement effect of LHe, 2, 5, 10, and 15% sucrose solutions were used as sweet taste reference samples. A 300 μg/mL LHe solution and a 300 μg/mL LHe+5% sucrose solution were presented as samples, and sweet taste intensities thereof were measured by a 15-point scale method. Here, the sweet taste reference samples, 2, 5, 10, and 16% sucrose solutions were respectively presented to be 2, 5, 10, and 15 points according to the method of Meilgaard et al. (1987).

Sweet taste intensity data for 3 molecules are collected here from US20140248411A1, “SWEETNESS ENHANCER” (KOREA FOOD RESEARCH INSTITUTE, priority 2011, published 2014).

Turning to `O=S(=O)(O)NC1CCCCC1` [cyclamate, sodium cyclamate], the sweet taste intensity was found to be 2.00±0.00 in experiment [1] (0.056% cyclamate reference sample) and 5.00±0.00 in experiment [1] (0.14% cyclamate reference sample).
For the molecule `OC[C@H]1O[C@@](CO)(O[C@H]2O[C@H](CO)[C@@H](O)[C@H](O)[C@H]2O)[C@@H](O)[C@@H]1O` [sucrose], the sweet taste intensity in experiment [2] (5% sucrose reference sample) amounted to 5.00±0.00; in experiment [3] (2% sucrose reference sample), 2.00±0.00; in experiment [3] (5% sucrose reference sample), 5.00±0.00.
In the case of Met-Asn [Met-Asn peptide], the sweet taste intensity is recorded as 5.00±0.23 in experiment [2] (Met-Asn peptide + 5% sucrose solution) and 0.13±0.04 in experiment [2] (Met-Asn peptide itself, without sugar binding).
